The record followed here is article PMC10315211 (Molecular microbiology, 2023).

The assay deals with CpdAEc (N-His-CpdAEc) (Escherichia coli, UniProt P0AEW4). The format is biochemical. The conditions noted are these: 50 mM Tris-HCl pH 8.0, 0.14 M NaCl, 2 mM MgCl2, room temperature.
Sequence of CpdAEc (N-His-CpdAEc) (P0AEW4 whole entry): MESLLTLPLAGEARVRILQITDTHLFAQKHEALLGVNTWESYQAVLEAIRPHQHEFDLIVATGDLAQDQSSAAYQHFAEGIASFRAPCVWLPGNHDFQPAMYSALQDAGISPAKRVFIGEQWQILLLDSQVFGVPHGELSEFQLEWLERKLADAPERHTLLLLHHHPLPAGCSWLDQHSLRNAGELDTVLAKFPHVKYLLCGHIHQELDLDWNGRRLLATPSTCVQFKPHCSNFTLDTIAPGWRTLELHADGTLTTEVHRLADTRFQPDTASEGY

For `C[N+](C)(C)CCOP(=O)([O-])OC[C@H](O)CO` [glycerophosphocholine], the “choline oxidase / HRP coupled Amplex Red fluorometric assay” value is “both Rv0805 and CpdAEc produced choline and Gly3P from glycerophosphocholine (GPC)”.
